In patent US20250295628A1 (priority 2022, published 2025):

How the values were obtained:
[1] = Solid stability of compositions 1-11 and compounds 1A-11A: main component content over time under different conditions (Example 37, Table 32); assay type: physicochemical
Method: Compositions 1-11 and compounds 1A-11A were placed at environments of −25° C., 5±3° C., 25±2° C./60±5% RH, 40±2° C./75±5% RH, 60° C. for 0 d, 5 d and 10 d (d refers to day), respectively, and changes of the main component content (the main component content of 0 day was converted to 100%) were measured, the results are shown in Table 32.

[2] = tested on: chronic cadmium poisoning model rabbits; test: Cadmium-removing effect by intravenous drip in chronic cadmium poisoning rabbits (Example 18); assay type: in vivo, New Zealand rabbits; details: for Urine β2-microglobulin values: after four weeks of administration
Text: 205 male New Zealand rabbits, 1.8˜2.2 kg, were randomly divided into a blank control group with 25 rabbits and chronic cadmium poisoning groups with a total of 180 rabbits. The model rabbits were ear margin intravenous injected with a mixed solution containing 1.5 μmol/kg CdCl2 and 30 μmol/kg thioethanol (ME) according to weight, once/d for continuous 5 days, and observed for 35 days. After 35 days, qualified rabbits were selected according to weight, including 18 rabbits in the blank group and 162 rabbits in the poisoning group. The 162 rabbits in the poisoning group were randomly divided into a model group, D3 high-dose group, D3 low-dose group, compound 3B high-dose group, compound 3B low-dose group, composition 3 high-dose group, composition 3 low-dose group, composition 3-powder injection high-dose group, composition 3-powder injection low-dose group, with 18 rabbits in each group. Rabbits in the mode group and the blank group were administered by intravenous drip with the same volume of normal saline, with a rate of 30 drops/min for a dripping time of about 2 h, 1 time/d, 5 d/week. After administration on the last day of week 1, week 2 and week 4, the urine of 0 h˜6 h and the urine of 7 h˜24 h of rabbits were respectively collected; the content of cadmium in blood, urine and kidney, and the cadmium-removing rate from blood and kidney were determined, and the results are shown in Table 6.

[3] = 5 ± 3° C., 0 d (0 day content converted to 100%)
[4] = 25 ± 2° C./60 ± 5% RH, 0 d (0 day content converted to 100%)
[5] = 40 ± 2° C./75 ± 5% RH, 0 d (0 day content converted to 100%)
[6] = 60° C., 0 d (0 day content converted to 100%)
[7] = −25° C., 0 d (0 day content converted to 100%)
[8] = 1 w of treatment, high-dose group (D3 433, compound 3B 83.5, composition 3 and composition 3-preparation 108 mg/kg)
[9] = 1 w of treatment, low-dose group (D3 108, compound 3B 21, composition 3 and composition 3-preparation 27 mg/kg)
[10] = 2 w of treatment, high-dose group (D3 433, compound 3B 83.5, composition 3 and composition 3-preparation 108 mg/kg)
[11] = 2 w of treatment, low-dose group (D3 108, compound 3B 21, composition 3 and composition 3-preparation 27 mg/kg)
[12] = 4 w of treatment, high-dose group (D3 433, compound 3B 83.5, composition 3 and composition 3-preparation 108 mg/kg)
[13] = 4 w of treatment, low-dose group (D3 108, compound 3B 21, composition 3 and composition 3-preparation 27 mg/kg)

| SMILES | main component content [1, 3] | main component content ([1]; 5 ± 3° C., 5 d) | main component content ([1]; 5 ± 3° C., 10 d) | main component content [1, 4] | main component content ([1]; 25 ± 2° C./60 ± 5% RH, 5 d) | main component content ([1]; 25 ± 2° C./60 ± 5% RH, 10 d) | main component content [1, 5] | main component content ([1]; 40 ± 2° C./75 ± 5% RH, 5 d) | main component content ([1]; 40 ± 2° C./75 ± 5% RH, 10 d) | main component content [1, 6] | main component content ([1]; 60° C., 5 d) | main component content ([1]; 60° C., 10 d) | main component content [1, 7] | main component content ([1]; −25° C., 5 d) | main component content ([1]; −25° C., 10 d) | also measured |
| --- | --- | --- | --- | --- | --- | --- | --- | --- | --- | --- | --- | --- | --- | --- | --- | --- |
| O=C([O-])C(CF)N(CC(O)C(O)C(O)C(O)CO)C(=S)[S][Na].[Na+] (stereo not drawn) [Compound 1A] | 100% | 99.5% | 99.1% | 100% | 97.3% | 92.1% | 100% | 83.5% | 81.5% | 100% | 59.4% | 58.7% | 100% | 100.2% | 100.1% |  |
| CC(C)C(C(=O)[O-])N(CC(O)C(O)C(O)C(O)CO)C(=S)[S][Na].[Na+] (stereo not drawn) [Compound 2A] | 100% | 99.5% | 98.1% | 100% | 91.4% | 82.5% | 100% | 94.1% | 90.1% | 100% | 49.9% | 48.8% | 100% | 100.2% | 99.8% |  |
| CSCCC(NCC(O)C(O)C(O)C(O)CO)C(=O)[O-].[Na+] (stereo not drawn) [Compound 3B] |  |  |  |  |  |  |  |  |  |  |  |  |  |  |  | Cadmium in blood [2, 8]: 101.54 ± 13.27 µg/L; Cadmium in kidney [2, 8]: 11.94 ± 3.51 µg/L; Cadmium in blood [2, 9]: 102.21 ± 16.38 µg/L; Cadmium in kidney [2, 9]: 12.03 ± 3.84 µg/L; Cadmium in blood [2, 10]: 73.18 ± 15.27 µg/L; Cadmium in kidney [2, 10]: 12.62 ± 5.37 µg/L; Cadmium in blood [2, 11]: 72.02 ± 16.92 µg/L; Cadmium in kidney [2, 11]: 12.57 ± 3.37 µg/L; Cadmium in blood [2, 12]: 27.92 ± 14.72 µg/L; Cadmium in kidney [2, 12]: 14.02 ± 2.96 µg/L; Cadmium in blood [2, 13]: 28.53 ± 12.62 µg/L; Cadmium in kidney [2, 13]: 13.22 ± 4.20 µg/L; cadmium-removing effect (compared with the model group) ([2]; 21 and 83.5 mg/kg, 1-4 weeks): no cadmium-removing effect; Urine β2-microglobulin values ([2]; high-dose group (D3 433, compound 3B 83.5, composition 3 and composition 3-preparation 108 mg/kg)): 209.42 ± 38.21 ng/L; Urine β2-microglobulin values ([2]; low-dose group (D3 108, compound 3B 21, composition 3 and composition 3-preparation 27 mg/kg)): 213.56 ± 31.76 ng/L |
| O=C([O-])C(CCSCO)N(CC(O)C(O)C(O)C(O)CO)C(=S)[S][Na].[Na+] (stereo not drawn) [Compound 4A] | 100% | 97.6% | 95.3% | 100% | 92.8% | 91.7% | 100% | 83.4% | 80.8% | 100% | 68.0% | 64.7% | 100% | 100.2% | 100.5% |  |
| O=C([O-])CCC(C(=O)[O-])N(CC(O)C(O)C(O)C(O)CO)C(=S)[S][Na].[Na+].[Na+] (stereo not drawn) [Compound 5A] | 100% | 99.6% | 98.7% | 100% | 97.8% | 95.7% | 100% | 97.9% | 91.8% | 100% | 80.3% | 78.7% | 100% | 100.7% | 101.1% |  |
